Key:
[1] = test system: histamine evoked gastric secretion; assay: Inhibition of histamine evoked gastric secretion in dogs with a chronic gastric fistula; format: in vivo, female beagle dogs; conditions: Canis lupus familiaris, iv, 0.5 h, read-out: IV ED50 (mg/kg) Total acid output
Experimental: […] Studies are performed in female beagle dogs with a chronic gastric fistula. The test compounds are administered i.v. at 0 min. Gastric secretion is stimulated by administration of a maximal secretory dose of histamine dihydrochloride ([…], base, s.c.) at 0 min. Gastric output is collected by gravity drainage for three 30 min periods (0-30, 30-60 and 60-90 min). Output volume (ml) is measured and an aliquot is titrated to pH 7 to determine acid concentration (titratable acid mEq/L); total acid output (mEq) is calculated as the product of volume and acid concentration. […]. Percent.inhibition of volume, acid concentration and total acid output is calculated relative to a placebo trial in the same animals; ED50 values are determined by linear regression analysis.

[2] = test system: gastric secretion; assay: Gastric secretion inhibitory activity of intermediate compounds (test not specified)
Source text: Thus, such intermediate compounds are deemed to constitute part of this invention.

Row | Compound | ED50 [1] [mg/kg] | gastric secretion inhibitory activity [2]
1 | CNC(=NCCSCc1[nH]cnc1C)NC#N [D, N-Cyano-N'-methyl-N''-[2-((4-methyl-5-imidazolyl)methylthio)ethyl]guanidine] | 1.8 | 
2 | CN(C)Cc1ccc(CSCCNc2n[nH]c(N)n2)o1 [C, 3-N-[2-[(5-Dimethylaminomethyl-2-furanyl)methylthio]ethyl]amino-5-amino-1,2,4-triazole] | 1.1 | 
3 | CCOC1=NS(=O)(=O)N=C1NCCSCc1ccc(CN(C)C)o1 [3-N-[2-[(5-dimethylaminomethyl-2-furanyl)methylthio]ethyl]amino-4-ethoxy-1,2,5-thiadiazde-1,1-dioxide] |  | substantial gastric secretion inhibitory activity
4 | CCOc1n[s+]([O-])nc1NCCSCc1ccc(CN(C)C)o1 (stereo not shown) [3-N-[2-[(5-dimethylaminomethyl-2-furanyl)methylthio]ethyl]amino-4-ethoxy-1,2,5-thiadiazole-1-oxide] |  | substantial gastric secretion inhibitory activity

Reference: patent EP0040696B1, “Aminothiadiazoles as gastric secretion inhibitors” (Merck & Co., Inc., priority 1980, dated 1981)
